Read-outs that look alike come from different tables or passages of the source.
What was measured:
[1] = molecular target: SpIMPDH (Streptococcus pyogenes, UniProt P0C0H6); assay: biochemical
[2] = molecular target: TfIMPDH (Tritrichomonas foetus, UniProt P50097); details: cited from earlier work; for Ki: TfIMPDH, ref Riera, et al., 2008
[3] = molecular target: EcIMPDH (Escherichia coli, UniProt P0ADG7); assay: IMPDH inhibition, E. coli enzyme; assay type: biochemical
[4] = molecular target: T1, BbIMPDH (Borreliella burgdorferi, UniProt P49058); assay: IMPDH inhibition, B. burgdorferi enzyme; assay type: biochemical
T1 sequence (P49058 1-404): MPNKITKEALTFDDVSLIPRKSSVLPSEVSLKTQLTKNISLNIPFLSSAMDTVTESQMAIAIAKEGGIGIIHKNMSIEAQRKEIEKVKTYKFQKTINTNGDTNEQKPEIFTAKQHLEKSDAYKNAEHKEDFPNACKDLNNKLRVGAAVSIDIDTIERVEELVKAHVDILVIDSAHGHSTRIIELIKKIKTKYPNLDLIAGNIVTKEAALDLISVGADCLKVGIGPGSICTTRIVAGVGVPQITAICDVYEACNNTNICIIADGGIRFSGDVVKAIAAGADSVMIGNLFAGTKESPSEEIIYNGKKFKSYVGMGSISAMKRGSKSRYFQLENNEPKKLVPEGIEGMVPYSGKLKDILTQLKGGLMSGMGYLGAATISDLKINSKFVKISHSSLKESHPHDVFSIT

[5] = molecular target: T2, CpIMPDH (Cryptosporidium parvum, UniProt Q8T6T2); details: cited from earlier work
T2 sequence (Q8T6T2 1-400): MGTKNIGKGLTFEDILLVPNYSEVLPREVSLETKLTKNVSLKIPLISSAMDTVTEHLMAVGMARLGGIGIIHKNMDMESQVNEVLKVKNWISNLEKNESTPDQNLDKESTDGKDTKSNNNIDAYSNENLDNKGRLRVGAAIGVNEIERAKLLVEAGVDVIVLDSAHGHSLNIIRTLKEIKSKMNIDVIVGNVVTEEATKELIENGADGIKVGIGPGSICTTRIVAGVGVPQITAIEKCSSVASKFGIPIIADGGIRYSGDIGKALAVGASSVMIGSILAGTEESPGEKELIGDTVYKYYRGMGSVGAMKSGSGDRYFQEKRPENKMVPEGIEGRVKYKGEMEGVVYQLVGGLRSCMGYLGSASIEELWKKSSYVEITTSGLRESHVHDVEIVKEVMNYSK

[6] = molecular target: LdIMPDH (Leishmania donovani, UniProt P21620); assay: IMPDH inhibition, L. donovani enzyme; assay type: biochemical
Chain of LdIMPDH (P21620 whole entry): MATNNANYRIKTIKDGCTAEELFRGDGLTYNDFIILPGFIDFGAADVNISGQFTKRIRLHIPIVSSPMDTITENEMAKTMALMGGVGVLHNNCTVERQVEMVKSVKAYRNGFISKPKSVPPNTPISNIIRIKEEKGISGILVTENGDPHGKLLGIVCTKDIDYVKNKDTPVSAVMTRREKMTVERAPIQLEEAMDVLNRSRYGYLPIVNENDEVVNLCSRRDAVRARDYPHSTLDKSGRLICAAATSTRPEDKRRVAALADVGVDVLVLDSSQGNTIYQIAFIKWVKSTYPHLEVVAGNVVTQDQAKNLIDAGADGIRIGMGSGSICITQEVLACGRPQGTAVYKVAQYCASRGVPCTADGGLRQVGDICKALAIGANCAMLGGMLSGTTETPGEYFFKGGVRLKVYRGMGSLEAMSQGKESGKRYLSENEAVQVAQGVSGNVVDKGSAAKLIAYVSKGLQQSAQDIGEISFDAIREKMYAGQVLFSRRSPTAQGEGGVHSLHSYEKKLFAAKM

[7] = molecular target: EcIMPDH-S250A (Escherichia coli, UniProt P0ADG7, S250A); assay: biochemical
Chain of EcIMPDH-S250A (P0ADG7 whole entry S250A): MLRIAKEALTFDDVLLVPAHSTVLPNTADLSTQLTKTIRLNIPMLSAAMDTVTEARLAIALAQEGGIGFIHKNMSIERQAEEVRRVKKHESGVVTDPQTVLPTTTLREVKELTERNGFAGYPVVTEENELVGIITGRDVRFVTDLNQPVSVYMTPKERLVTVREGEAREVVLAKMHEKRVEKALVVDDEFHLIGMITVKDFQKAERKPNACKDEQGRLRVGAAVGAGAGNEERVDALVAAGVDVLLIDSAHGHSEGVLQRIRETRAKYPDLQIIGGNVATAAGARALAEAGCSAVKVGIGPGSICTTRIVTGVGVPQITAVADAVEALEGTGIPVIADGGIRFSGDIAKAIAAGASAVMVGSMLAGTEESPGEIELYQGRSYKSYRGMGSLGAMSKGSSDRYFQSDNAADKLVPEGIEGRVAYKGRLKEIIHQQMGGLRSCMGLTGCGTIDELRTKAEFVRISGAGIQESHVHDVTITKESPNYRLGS

[8] = molecular target: EcIMPDH-S250A/L444Y (Escherichia coli, UniProt P0ADG7, L444Y/S250A); assay: biochemical
Chain of EcIMPDH-S250A/L444Y (P0ADG7 whole entry S250A/L444Y): as the sequence (P0ADG7 whole entry S250A) above, with L444Y counted along it

[9] = molecular target: T3, HpIMPDH (Helicobacter pylori, UniProt P56088); assay: IMPDH inhibition, H. pylori enzyme; assay type: biochemical
T3 sequence (P56088 1-481): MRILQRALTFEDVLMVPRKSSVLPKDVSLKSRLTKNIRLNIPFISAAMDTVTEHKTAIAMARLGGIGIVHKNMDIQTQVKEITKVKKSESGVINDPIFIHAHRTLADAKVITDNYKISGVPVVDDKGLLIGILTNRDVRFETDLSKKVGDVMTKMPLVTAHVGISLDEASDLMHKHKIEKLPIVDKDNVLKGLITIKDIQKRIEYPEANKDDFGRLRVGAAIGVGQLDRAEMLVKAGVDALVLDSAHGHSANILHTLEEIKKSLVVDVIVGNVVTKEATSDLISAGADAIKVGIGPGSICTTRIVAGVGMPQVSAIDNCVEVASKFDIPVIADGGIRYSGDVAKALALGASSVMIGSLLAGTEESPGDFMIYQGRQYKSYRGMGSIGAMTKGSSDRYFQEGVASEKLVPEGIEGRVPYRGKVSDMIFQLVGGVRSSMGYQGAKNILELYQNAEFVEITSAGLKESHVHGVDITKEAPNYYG

Chain of TfIMPDH (P50097 whole entry): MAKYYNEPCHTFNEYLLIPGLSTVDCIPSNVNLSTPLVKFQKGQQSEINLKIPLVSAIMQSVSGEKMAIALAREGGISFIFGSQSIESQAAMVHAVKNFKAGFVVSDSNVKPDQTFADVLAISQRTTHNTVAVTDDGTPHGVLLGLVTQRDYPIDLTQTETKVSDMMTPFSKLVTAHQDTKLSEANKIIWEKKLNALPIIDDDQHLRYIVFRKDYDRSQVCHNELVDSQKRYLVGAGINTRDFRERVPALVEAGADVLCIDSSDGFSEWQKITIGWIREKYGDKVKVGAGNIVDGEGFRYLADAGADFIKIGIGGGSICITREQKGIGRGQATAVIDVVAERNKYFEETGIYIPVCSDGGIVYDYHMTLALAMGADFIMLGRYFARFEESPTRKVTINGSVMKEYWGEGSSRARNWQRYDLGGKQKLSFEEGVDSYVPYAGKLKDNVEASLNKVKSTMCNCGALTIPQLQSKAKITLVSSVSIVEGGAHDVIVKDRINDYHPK
Chain of EcIMPDH (P0ADG7 whole entry): as the sequence (P0ADG7 whole entry S250A) above, with A250S counted along it
Chain of SpIMPDH (P0C0H6 whole entry): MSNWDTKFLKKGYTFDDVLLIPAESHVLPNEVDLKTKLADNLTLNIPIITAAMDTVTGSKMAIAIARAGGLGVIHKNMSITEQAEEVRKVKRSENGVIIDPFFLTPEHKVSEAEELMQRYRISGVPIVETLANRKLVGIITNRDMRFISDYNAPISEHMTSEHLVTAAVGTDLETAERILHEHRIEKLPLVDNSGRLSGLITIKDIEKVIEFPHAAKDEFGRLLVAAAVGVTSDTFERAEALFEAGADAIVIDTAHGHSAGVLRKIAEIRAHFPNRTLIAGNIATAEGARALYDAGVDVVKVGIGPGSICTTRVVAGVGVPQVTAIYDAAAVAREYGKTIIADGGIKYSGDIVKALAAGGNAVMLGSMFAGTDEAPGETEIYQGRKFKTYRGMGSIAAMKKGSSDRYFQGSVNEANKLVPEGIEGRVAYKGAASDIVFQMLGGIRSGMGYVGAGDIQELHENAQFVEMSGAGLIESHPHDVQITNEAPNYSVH

Nc1ncnc2c1ncn2[C@@H]1O[C@H](COP(=O)(O)OP(=O)(O)O)[C@@H](O)[C@H]1O [ADP]
Ki ([1]; read-out: Ki ADP, SpIMPDH): 13 ± 2 mM | Ki ([2]; read-out: Ki ADP): 31 ± 2 mM | Ki ([3]; read-out: Ki ADP, EcIMPDH): 10 ± 2 mM | Ki ([4]; read-out: Ki ADP, BbIMPDH): 7.4 ± 0.6 mM | Ki ([5]; read-out: Ki ADP, ref Riera, et al., 2008): 42 ± 6 mM | Ki ([6]; read-out: Ki ADP, LdIMPDH): 15 ± 2 mM | Ki ([7]; read-out: Ki ADP, EcIMPDH-S250A): 0.1 ± 0.01 mM | Ki ([8]; read-out: Ki ADP, EcIMPDH-S250A/L444Y): 4.1 ± 0.7 mM | Ki ([9]; read-out: Ki ADP, HpIMPDH): 6 ± 0.5 mM

NC(=O)c1csc([C@@H]2O[C@H](CO)[C@@H](O)[C@H]2O)n1 [Tzf, tiazofurin]
Ki [1]: 8 ± 1 mM | Ki ([2]; read-out: Ki Tzf): 69 ± 9 mM | Ki [3]: 5.3 ± 0.6 mM | Ki [4]: 1.1 ± 0.2 mM | Ki ([5]; read-out: Ki Tzf, ref Riera, et al., 2008): 1.5 ± 0.1 mM | Ki [6]: 8.3 ± 0.7 mM | Ki [7]: 2.5 ± 0.3 mM | Ki [8]: 1.1 ± 0.2 mM | Ki [9]: 1.3 ± 0.1 mM

COc1c(C)c2c(c(O)c1C/C=C(\C)CCC(=O)O)C(=O)OC2 [mycophenolic acid]
Fold more resistant than human IMPDH2 (TfIMPDH) ([2]; TfIMPDH vs human IMPDH2, ref Digits and Hedstrom, 2000): 400 fold

From paper PMC2991053 (Chemistry & biology, 2010)
